Among the data in ChEMBL document CHEMBL1144891, “Design, synthesis, and pharmacology of a highly subtype-selective GluR1/2 agonist, (RS)-2-amino-3-(4-chloro-3-hydroxy-5-isoxazolyl)propionic acid (Cl-HIBO)” (J Med Chem, 2003) are EC50, Ki and IC50 values, retold here.

The term EC50 denotes the concentration at which the effect is half-maximal. The low end stands for a more potent agent, the high end for a less potent agent. As usually defined, the Ki is the equilibrium dissociation constant of an inhibitor or competing ligand from its target. High values mean weaker binding, low ones tighter binding. A word on the IC50: it is the midpoint of a concentration-inhibition curve.

Series [1] can be described thus: Neurotoxicity was determined in cultured mouse cortical neurons. Format: toxicity.
Series [2] concerns the target Glutamate receptor ionotropic, kainate 1 (Homo sapiens, UniProt P39086). The experiment in a line: Binding affinity of compound was determined towards cloned Ionotropic glutamate receptor ionotropic kainate 1 (GluR5) expressed in Sf 9 insect cells.
The target in series [3] is T1, Metabotropic glutamate receptor 1 (Homo sapiens, UniProt Q13255). The experiment in a line: Antagonist activity of compound at Metabotropic glutamate receptor 1 was determined. The series is classed as functional.
Series [4] deals with T2, Glutamate receptor ionotropic, kainate 3 (Rattus norvegicus, UniProt P42264). The experiment in a line: Binding affinity of compound was determined against Ionotropic glutamate receptor ionotropic kainate, using radioligand [3H]- KA.
Series [5] has as its target Glutamate receptor 3 (Homo sapiens, UniProt P42263). The experiment in a line: Binding affinity of compound was determined towards cloned Ionotropic glutamate receptor AMPA 3 (GluR3) expressed in Sf 9 insect cells.
The target of series [6] is Glutamate receptor ionotropic, kainate 2 (Homo sapiens, UniProt Q13002). The experiment in a line: Binding affinity of compound was determined towards cloned Ionotropic glutamate receptor ionotropic kainate 6 (GluR6) expressed in Sf 9 insect cells.
Series [7] deals with Glutamate receptor ionotropic, NMDA 2C (Rattus norvegicus, UniProt Q00961). The experiment in a line: Binding affinity of compound was determined against N-methyl-D-aspartate glutamate receptor, using radioligand [3H]- CGP-39653.
For series [8], the target named is Glutamate receptor 4 (Homo sapiens, UniProt P48058). The experiment in a line: Binding affinity of compound was determined towards cloned Ionotropic glutamate receptor AMPA 4 (GluR4) expressed in Sf 9 insect cells.
Series [9] addresses Glutamate receptor 1 (Homo sapiens, UniProt P42261). The experiment in a line: Binding affinity of compound was determined towards cloned Ionotropic glutamate receptor AMPA 1 (GluR1) expressed in Sf 9 insect cells.
In series [10] the target is Glutamate receptor 2 (Homo sapiens, UniProt P42262). The experiment in a line: biochemical.
The target in series [11] is Glutamate receptor 1 (Mus musculus, UniProt P23818). The experiment in a line: Effective concentration of compound was determined for electrophysiological properties on […] glutamate receptor 1 using […] Xenopus laevis oocytes. The series is classed as functional, cell-based, Oocyte.
Series [12] addresses Glutamate receptor 4 (Rattus norvegicus, UniProt P19493). The experiment in a line: Effective concentration of compound was determined for electrophysiological properties on Ionotropic glutamate receptor AMPA 4 (GluR4) using […] Xenopus laevis oocytes. Format: functional, cell-based, Oocyte.
The target of series [13] is T1, Metabotropic glutamate receptor 1. The experiment in a line: Antagonist activity of compound at Metabotropic glutamate receptor 1 alpha was determined. Format: functional.
Series [14] concerns the target T2, Glutamate receptor ionotropic, kainate 3. The experiment in a line: Binding affinity of compound was determined against KA receptor, using radioligand [3H]- KA.
The target in series [15] is Glutamate receptor 1 (Rattus norvegicus, UniProt P19490). The experiment in a line: Binding affinity of compound was determined against Ionotropic glutamate receptor AMPA receptor, using radioligand [3H]- AMPA.
In series [16] the target is Glutamate receptor 2 (Rattus norvegicus, UniProt P19491). The experiment in a line: Effective concentration of compound was determined for electrophysiological properties on Ionotropic glutamate receptor AMPA 2 (GluR2) using […] Xenopus laevis oocytes. Format: functional, cell-based, Oocyte.
Series [17] is filed under the species Rattus norvegicus. The experiment in a line: Effective concentration of compound was determined for electrophysiological properties on iGluRs using rat cortical slice model in Xenopus laevis oocytes.
For series [18], the target named is Glutamate receptor 3 (Rattus norvegicus, UniProt P19492). The experiment in a line: Effective concentration of compound was determined for electrophysiological properties on Ionotropic glutamate receptor AMPA 3 (GluR3) using […] Xenopus laevis oocytes. Format: functional, cell-based, Oocyte.

T2 sequence (P42264 whole entry): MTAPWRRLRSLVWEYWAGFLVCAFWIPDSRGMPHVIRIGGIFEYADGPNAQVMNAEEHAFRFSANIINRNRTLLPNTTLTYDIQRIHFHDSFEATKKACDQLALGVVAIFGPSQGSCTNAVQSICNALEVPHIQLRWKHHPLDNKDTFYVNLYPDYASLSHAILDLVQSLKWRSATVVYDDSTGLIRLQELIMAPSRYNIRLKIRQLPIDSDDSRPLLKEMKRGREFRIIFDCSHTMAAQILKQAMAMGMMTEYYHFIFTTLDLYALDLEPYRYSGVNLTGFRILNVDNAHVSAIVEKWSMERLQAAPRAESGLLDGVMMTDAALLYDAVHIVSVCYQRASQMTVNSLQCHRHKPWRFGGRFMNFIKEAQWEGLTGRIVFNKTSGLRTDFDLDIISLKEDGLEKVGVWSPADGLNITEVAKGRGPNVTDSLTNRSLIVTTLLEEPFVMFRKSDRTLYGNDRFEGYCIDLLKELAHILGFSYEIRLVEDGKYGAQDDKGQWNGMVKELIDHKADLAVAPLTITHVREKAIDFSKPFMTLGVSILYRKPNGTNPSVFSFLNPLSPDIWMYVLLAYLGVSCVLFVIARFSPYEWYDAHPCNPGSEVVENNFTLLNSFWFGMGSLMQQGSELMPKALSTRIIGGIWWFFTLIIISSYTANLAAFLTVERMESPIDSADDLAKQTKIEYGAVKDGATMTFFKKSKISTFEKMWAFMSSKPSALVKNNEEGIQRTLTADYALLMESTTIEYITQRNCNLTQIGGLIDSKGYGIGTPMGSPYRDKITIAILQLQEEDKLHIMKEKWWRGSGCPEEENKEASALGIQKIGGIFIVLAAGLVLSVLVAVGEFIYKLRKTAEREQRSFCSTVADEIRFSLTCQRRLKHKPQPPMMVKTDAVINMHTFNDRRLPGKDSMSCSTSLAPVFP
Glutamate receptor 2 (Homo sapiens, UniProt P42262), sequence (P42262 whole entry): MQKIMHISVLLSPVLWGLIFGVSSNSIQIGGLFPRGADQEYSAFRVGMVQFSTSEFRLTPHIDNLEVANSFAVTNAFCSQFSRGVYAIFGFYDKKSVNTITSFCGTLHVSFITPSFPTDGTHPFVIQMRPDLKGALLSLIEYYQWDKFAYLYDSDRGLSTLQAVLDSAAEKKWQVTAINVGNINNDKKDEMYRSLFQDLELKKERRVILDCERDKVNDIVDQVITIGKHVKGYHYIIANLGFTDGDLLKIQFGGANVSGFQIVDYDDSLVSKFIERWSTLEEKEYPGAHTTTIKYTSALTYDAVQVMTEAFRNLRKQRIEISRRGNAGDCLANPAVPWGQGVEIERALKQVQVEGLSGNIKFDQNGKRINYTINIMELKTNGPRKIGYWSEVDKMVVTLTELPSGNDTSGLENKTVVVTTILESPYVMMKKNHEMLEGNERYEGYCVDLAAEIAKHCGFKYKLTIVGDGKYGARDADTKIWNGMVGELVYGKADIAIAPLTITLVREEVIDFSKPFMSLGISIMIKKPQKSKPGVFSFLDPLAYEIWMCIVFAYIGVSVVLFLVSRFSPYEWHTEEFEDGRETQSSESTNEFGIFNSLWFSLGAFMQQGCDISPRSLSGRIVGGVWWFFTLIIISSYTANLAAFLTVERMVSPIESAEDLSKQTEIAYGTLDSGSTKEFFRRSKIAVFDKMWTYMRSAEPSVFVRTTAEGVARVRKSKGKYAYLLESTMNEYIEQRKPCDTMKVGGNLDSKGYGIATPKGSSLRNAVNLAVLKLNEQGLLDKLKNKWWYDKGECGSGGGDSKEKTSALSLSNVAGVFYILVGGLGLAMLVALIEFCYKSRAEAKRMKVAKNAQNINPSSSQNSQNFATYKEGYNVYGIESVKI
T1 sequence (Q13255 whole entry): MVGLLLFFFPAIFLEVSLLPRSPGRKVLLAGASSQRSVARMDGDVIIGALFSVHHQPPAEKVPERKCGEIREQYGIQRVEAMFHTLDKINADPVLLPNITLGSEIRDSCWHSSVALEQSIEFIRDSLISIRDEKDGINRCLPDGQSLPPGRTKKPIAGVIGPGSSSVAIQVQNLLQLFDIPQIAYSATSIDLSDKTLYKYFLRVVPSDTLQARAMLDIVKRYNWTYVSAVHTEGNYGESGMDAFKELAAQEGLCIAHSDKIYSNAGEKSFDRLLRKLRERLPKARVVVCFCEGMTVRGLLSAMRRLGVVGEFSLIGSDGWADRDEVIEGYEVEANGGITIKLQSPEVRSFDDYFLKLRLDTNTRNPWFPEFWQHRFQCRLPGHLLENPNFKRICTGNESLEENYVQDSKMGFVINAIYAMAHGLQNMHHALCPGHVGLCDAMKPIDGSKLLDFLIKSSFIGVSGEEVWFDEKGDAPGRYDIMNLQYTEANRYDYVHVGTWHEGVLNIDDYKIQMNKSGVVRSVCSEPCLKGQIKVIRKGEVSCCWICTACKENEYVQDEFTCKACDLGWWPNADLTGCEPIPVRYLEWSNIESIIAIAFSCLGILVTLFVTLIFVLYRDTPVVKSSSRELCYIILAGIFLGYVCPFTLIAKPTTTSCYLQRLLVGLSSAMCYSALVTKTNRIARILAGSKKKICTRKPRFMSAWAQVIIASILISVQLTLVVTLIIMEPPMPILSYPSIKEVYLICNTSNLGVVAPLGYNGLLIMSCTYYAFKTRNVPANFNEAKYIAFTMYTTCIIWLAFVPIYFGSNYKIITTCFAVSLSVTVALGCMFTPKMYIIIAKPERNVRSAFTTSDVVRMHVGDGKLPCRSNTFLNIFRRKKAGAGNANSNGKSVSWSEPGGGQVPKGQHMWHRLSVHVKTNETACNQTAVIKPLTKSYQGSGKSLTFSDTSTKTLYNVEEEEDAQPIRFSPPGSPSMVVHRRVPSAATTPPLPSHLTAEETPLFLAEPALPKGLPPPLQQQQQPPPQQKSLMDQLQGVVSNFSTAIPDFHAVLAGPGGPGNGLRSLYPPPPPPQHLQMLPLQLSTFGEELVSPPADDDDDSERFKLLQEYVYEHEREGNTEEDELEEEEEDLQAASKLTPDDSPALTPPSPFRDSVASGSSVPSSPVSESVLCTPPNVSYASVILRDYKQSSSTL
Glutamate receptor 3 (Homo sapiens, UniProt P42263), sequence (P42263 whole entry): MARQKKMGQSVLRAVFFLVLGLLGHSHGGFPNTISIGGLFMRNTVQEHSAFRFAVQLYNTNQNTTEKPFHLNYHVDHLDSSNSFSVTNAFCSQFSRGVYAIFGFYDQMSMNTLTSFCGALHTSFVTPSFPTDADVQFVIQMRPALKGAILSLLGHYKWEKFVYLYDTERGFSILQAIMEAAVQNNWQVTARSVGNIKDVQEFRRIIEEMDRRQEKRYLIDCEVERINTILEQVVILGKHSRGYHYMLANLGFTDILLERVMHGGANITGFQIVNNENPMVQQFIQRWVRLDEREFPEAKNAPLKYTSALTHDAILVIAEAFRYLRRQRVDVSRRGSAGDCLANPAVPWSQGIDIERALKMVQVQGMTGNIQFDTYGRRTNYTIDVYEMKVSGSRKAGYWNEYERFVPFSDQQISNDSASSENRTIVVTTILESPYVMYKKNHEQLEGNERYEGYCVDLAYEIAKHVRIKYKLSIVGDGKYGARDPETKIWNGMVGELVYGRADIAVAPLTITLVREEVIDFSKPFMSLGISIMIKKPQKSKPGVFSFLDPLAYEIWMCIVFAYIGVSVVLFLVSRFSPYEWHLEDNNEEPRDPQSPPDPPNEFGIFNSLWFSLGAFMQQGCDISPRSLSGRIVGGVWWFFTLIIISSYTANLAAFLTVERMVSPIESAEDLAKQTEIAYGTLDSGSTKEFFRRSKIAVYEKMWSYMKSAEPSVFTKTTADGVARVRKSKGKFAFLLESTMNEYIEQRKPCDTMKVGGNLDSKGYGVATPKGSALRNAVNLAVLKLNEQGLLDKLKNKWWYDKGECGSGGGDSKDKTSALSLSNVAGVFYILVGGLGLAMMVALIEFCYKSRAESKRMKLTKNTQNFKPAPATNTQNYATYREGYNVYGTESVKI
Glutamate receptor 4 (Homo sapiens, UniProt P48058), sequence (P48058 whole entry): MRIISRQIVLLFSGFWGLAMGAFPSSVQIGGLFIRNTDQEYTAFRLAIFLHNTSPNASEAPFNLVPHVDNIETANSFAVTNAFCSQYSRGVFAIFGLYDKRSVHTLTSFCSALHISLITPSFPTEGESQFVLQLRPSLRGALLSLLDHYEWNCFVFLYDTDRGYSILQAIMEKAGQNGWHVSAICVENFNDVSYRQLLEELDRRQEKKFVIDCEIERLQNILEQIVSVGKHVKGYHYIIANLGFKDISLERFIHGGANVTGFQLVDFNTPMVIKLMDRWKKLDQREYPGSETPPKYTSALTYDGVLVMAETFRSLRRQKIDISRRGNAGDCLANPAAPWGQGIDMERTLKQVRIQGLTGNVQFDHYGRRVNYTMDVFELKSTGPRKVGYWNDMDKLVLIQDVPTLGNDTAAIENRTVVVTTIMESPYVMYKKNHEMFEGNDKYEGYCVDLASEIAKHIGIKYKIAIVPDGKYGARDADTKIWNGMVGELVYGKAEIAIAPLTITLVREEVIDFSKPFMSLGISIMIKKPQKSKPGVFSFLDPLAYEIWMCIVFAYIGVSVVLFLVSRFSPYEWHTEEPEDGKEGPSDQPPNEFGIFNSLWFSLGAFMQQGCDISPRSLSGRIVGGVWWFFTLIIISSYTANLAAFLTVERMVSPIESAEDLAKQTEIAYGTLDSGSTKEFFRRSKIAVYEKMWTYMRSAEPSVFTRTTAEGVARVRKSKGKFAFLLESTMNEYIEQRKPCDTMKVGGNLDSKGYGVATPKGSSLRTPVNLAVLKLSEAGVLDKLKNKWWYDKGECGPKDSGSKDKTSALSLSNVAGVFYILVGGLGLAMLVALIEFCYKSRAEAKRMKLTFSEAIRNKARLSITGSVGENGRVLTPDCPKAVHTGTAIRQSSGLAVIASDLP
Glutamate receptor 2 (Rattus norvegicus, UniProt P19491), sequence (P19491 whole entry): as the sequence (P42262 whole entry) above, with M191T, T291A, R764G, A852P counted along it

On to `Cc1onc(O)c1CC(N)C(=O)O` [(R,S)-AMPA], for which, in series [1], a half-maximal effect (EC50) was put at 13 µM. This lies in the double-digit micromolar range.

Turning to `NC(Cc1onc(O)c1Br)C(=O)O` (configuration not stated), the inhibition constant (Ki) in series [2] was 4.8 µM; in [3], 329 µM; in series [5] it was 12 µM; in [6] it was > 100 µM; in [7] it was 34 µM; in series [8], 11.7 µM. Besides, the Ki in [9] is 0.17 µM; in [10], 0.25 µM. In [4], the IC50 was > 100 µM. The EC50 in series [1] stood at 16 µM; in [11], 14 µM.

As for `NC(Cc1onc(O)c1Cl)C(=O)O` (configuration not stated), the Ki in [2] was 6.8 µM; in series [5] it was 27.5 µM; in series [13], 860 µM; in series [6] it was > 100 µM; in series [7], 18 µM; in series [8], 11.9 µM. In addition, the Ki in series [9] is 0.13 µM; in [10] it was 0.37 µM. The EC50 came out at 1300 µM in [12]; 1.7 µM in series [16]; 39 µM in [17]; 27 µM in series [1]; 2700 µM in [18]. For the same molecule, the IC50 in series [14] was > 100 µM; in [15], 0.22 µM.
